# Measured values: paper PMC11352099 (RSC Medicinal Chemistry, 2024)
# Where “and” joins values, the source holds several entries; their conditions need not be identical. Equal entries are not always repeated. Where two headings read alike, the source gives them in different places.
# Assays:
# [1] = for Plasma stability % of the parent compound after 120 min, Mouse: 10 μM
# [2] = tested on: SARS-CoV-2 strain hCoV-19/Czech Republic/NRL_6632_2/2020; assay: microbe, parasite or virus in culture; assay type: cell-based; conditions: Severe acute respiratory syndrome coronavirus 2; Calu-3 cell line; read-out: EC50 (antiviral effect)
# [3] = target: SARS-CoV-2 nsp14 MTase (Severe acute respiratory syndrome coronavirus 2, UniProt P0DTD1); assay: biochemical; assay type: biochemical; conditions: for Hill slope: Table S1, dose-response curve, variable slope model
# [4] = tested on: Caco-2 monolayers; assay: in vitro; conditions: Caco-2
# Protocol: (§1) 3.5. Caco-2 permeability assay
# (§2) Transepithelial bi-directional transport of compounds (10 µM, pH 7.4/7.4) was tested on 21-day differentiated Caco-2 monolayers. Briefly, the cells were seeded at a density of 67 ,500 cells per 96-well plate insert (Millicell®, Merck KGaA, Darmstadt, Germany). They were left to differentiate for 21 days with medium exchange every 2–3 days. Prior to the experiment, the medium from both apical and basolateral well was exchanged for HBSS buffer (containing 10 mM HEPES and 25 mM glucose) and left to equilibrate for 30 min. Compound permeability was assayed by replacing pure HBSS with HBSS containing 10 μM compounds and 220 μM Lucifer yellow (LY) solution in an apical insert (A to B transport) or in a basolateral well (B to A transport). The tre ated cells were then returned to the incubator for 2 h at 37 °C. After that, samples were collected from both apical inserts and basolateral wells and analyzed using LC -MS/MS (SCIEX Triple Quad™ 7500 QTRAP® Ready). LC separation was done on Synergi 4µm Fusion 50 × 2 mm column (Phenomenex) using a water/acetonitrile gradient with 0.1% formic acid starting from 2 to 98% for 4.5 min.
# (§3) The apparent permeability coefficient (Papp) was calculated from t he following equation: Papp = (dQ / dt) / C0 * A, where dQ/dt is the rate of absorption of the drug across the cells, C0 is the donor compartment concentration at time zero, and A is the area of the monolayer. Efflux ratio was expressed as (Papp B -A) / (Papp A-B). Recovery (%) was determined as (total compound mass i n donor and receiver compartments at the end of the incubation / initial compound mass in the donor compartment) x 100. The data represent means ± SD of two independent experiments performed in triplicate. […]
# (§4) were used as control compounds.
# [5] = in vitro; conditions: human; for efflux ratio at 2 h, 10 µM: Caco-2; for Papp A→B at 2 h, 10 µM / Papp B→A at 2 h, 10 µM: Caco-2, pH 7.4
# Protocol: as §1, §2, §3, §4
# [6] = target: human RNMT (Homo sapiens, UniProt O43148); assay: Off-target inhibition of human RNMT; assay type: biochemical; conditions: 25 μM concentration of inhibitor
# Text: Human cells rely on several MTases; therefore, it is necessary to assess the possible off-target effect. […]
# [7] = microsomes, 0.75 h, 10 µM, pH 7.4
# [8] = for Plasma stability % of the parent compound after 120 min, Human: 10 μM
# [9] = microsomes, 0.75 h, 10 µM, pH 7.4; remark: listed apart in the source
# [10] = Table 1 and text, N.I., no inhibition, read-out: IC50
# [11] = Table S1, read-out: IC50 (inhibitory activity)
# [12] = Table 1 and text, N.I., no inhibition
# Sequence of human RNMT (O43148 whole entry): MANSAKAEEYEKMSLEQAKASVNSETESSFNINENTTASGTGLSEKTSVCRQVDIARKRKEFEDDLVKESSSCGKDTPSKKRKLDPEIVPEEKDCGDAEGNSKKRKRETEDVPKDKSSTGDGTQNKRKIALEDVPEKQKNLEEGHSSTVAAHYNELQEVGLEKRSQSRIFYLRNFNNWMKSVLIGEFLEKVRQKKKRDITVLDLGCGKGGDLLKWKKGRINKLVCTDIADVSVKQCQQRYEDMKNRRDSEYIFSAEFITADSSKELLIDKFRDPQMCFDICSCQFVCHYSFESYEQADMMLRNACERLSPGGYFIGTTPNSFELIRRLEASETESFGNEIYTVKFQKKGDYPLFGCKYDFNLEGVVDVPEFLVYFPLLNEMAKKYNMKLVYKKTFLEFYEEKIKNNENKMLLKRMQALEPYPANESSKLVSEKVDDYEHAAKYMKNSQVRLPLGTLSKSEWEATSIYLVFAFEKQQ
structure (smiles),measurement,setting,value
Cc1cc(=O)[nH]c2cc(N(C)C(=O)[C@H]3O[C@@H](n4cc(C#Cc5cncnc5)c5c(N)ncnc54)[C@H](O)[C@@H]3O)ccc12 [18q],"Plasma stability % of the parent compound after 120 min, Mouse",[1],86 ± 0.9%
same,EC50,[2],> 50 µM
same,IC50,[3]; [10],0.89 ± 0.12 µM
same,Hill slope,[3],-1.02
same,IC50,[3]; [11],0.891 µM
same,Papp A-B,[4],2.0 ± 0.3 cm/s x 10-6
same,Papp B-A,[4],2.1 ± 0.4 cm/s x 10-6
same,"efflux ratio at 2 h, 10 µM",[5],1
same,"recovery at 2 h, 10 µM","[5]; Caco-2, Recovery (%) A-B",89%
same,"recovery at 2 h, 10 µM","[5]; Caco-2, Recovery (%) B-A",101%
same,"Papp A→B at 2 h, 10 µM",[5],2 ± 0.3 ×10⁻⁶ cm/s
same,"Papp B→A at 2 h, 10 µM",[5],2.1 ± 0.4 ×10⁻⁶ cm/s
same,inhibitory activity against RNMT,[6],None of the tested compounds exhibited any inhibitory activity
same,"Microsomal stability % of the parent compound after 45 min, Mouse",[7],117 ± 10.9%
same,"Plasma stability % of the parent compound after 120 min, Human",[8],80 ± 1.1%
same,"Microsomal stability % of the parent compound after 45 min, Human",[9],107 ± 6.6%
Nc1ncnc2c1ncn2[C@@H]1O[C@H](C(=O)Nc2ccc(-c3cn[nH]c3)cc2)[C@@H](O)[C@H]1O [12i],IC50,[3]; [12],N.I.
"C[C@H]1O[C@@H](O[C@H]2[C@@H](O)C[C@H](O[C@H]3[C@@H](O)C[C@H](O[C@H]4CC[C@@]5(C)[C@H](CC[C@@H]6[C@@H]5C[C@@H](O)[C@]5(C)[C@@H](C7=CC(=O)OC7)CC[C@]65O)C4)O[C@@H]3C)O[C@@H]2C)C[C@H](O)[C@@H]1O [Digoxin, reference compound]","recovery at 2 h, 10 µM","[5]; Caco-2, Recovery (%) A-B, Table S2, A to B transport",131%
same,"recovery at 2 h, 10 µM","[5]; Caco-2, Recovery (%) B-A, Table S2, B to A transport",77%
COC(=O)c1ccc(NC(=O)[C@H]2O[C@@H](n3cnc4c(N)ncnc43)[C@H](O)[C@@H]2O)cc1 [12a],IC50,[3]; [10],> 25 µM
Cc1ccc(NC(=O)[C@H]2O[C@@H](n3cnc4c(N)ncnc43)[C@H](O)[C@@H]2O)cc1O [12e],IC50,[3]; [12],N.I.
Nc1ncnc2c1ncn2[C@@H]1O[C@H](C(=O)Nc2ccc3c(C(F)(F)F)cc(=O)oc3c2)[C@@H](O)[C@H]1O [12m],"Plasma stability % of the parent compound after 120 min, Mouse",[1],67 ± 3.5%
same,stability in mouse plasma (in words),[1]; plasma,unstable
same,IC50,[3]; [10],1.47 ± 0.14 µM
same,Hill slope,[3],-1.01
same,IC50,[3]; [11],1.47 µM
same,Papp A-B,[4],8.0 ± 2.9 cm/s x 10-6
same,Papp B-A,[4],32.9 ± 5.3 cm/s x 10-6
same,"efflux ratio at 2 h, 10 µM",[5],4.1
same,"recovery at 2 h, 10 µM","[5]; Caco-2, Recovery (%) A-B",96%
same,"recovery at 2 h, 10 µM","[5]; Caco-2, Recovery (%) B-A",130%
same,"Papp A→B at 2 h, 10 µM",[5],8 ± 2.9 ×10⁻⁶ cm/s
same,"Papp B→A at 2 h, 10 µM",[5],32.9 ± 5.3 ×10⁻⁶ cm/s
same,"Microsomal stability % of the parent compound after 45 min, Mouse",[7],93 ± 9.4%
same,"Plasma stability % of the parent compound after 120 min, Human",[8],20 ± 1.4%
same,stability in human plasma (in words),[8]; plasma,unstable
same,"Microsomal stability % of the parent compound after 45 min, Human",[9],90 ± 9.1%
Nc1ncnc2c1ncn2[C@@H]1O[C@H](C(=O)Nc2ccc3cccnc3c2)[C@@H](O)[C@H]1O [12p],IC50,[3]; [10],4.81 ± 2.54 µM
same,Hill slope,[3],-1.45
same,IC50,[3]; [11],4.81 µM
Nc1ncnc2c1ncn2[C@@H]1O[C@H](CNC(=O)c2ccc3c(c2)OCCO3)[C@@H](O)[C@H]1O [21k],inhibitory activity against nsp14 (in words),[3],significant decrease or complete loss of the inhibitory activity
same,IC50,[3]; [12],N.I.
Nc1ncnc2c1ncn2[C@@H]1O[C@H](CNS(=O)(=O)c2ccc3c(c2)OCCO3)[C@@H](O)[C@H]1O [22k],inhibitory activity against nsp14 (in words),[3],significant decrease or complete loss of the inhibitory activity
same,IC50,[3]; [10],15.3 ± 2.55 µM
same,Hill slope,[3],-1.55
COC(=O)c1ccc(C(=O)NC[C@H]2O[C@@H](n3cnc4c(N)ncnc43)[C@H](O)[C@@H]2O)cc1 [21a],inhibitory activity against nsp14 (in words),[3],significant decrease or complete loss of the inhibitory activity
same,IC50,[3]; [12],N.I.
Nc1ncnc2c1ncn2[C@@H]1O[C@H](C(=O)Nc2ccc3c(c2)NC(=O)CC3)[C@@H](O)[C@H]1O [12o],IC50,[3]; [10],6.55 ± 1.44 µM
same,Hill slope,[3],-0.91
same,IC50,[3]; [11],6.55 µM
Nc1ncnc2c1ncn2[C@@H]1O[C@H](C(=O)Nc2ccc3c(c2)OCCO3)[C@@H](O)[C@H]1O [12k],IC50,[3]; [10],1.8 µM and 1.81 µM
same,Hill slope,[3],-1.01
same,IC50,[3]; [11],1.81 µM
COc1cccc(NC(=O)[C@H]2O[C@@H](n3cnc4c(N)ncnc43)[C@H](O)[C@@H]2O)c1 [12c],IC50,[3]; [12],N.I.
Cc1cc(=O)oc2cc(SC[C@H]3O[C@@H](n4cnc5c(N)ncnc54)[C@H](O)[C@@H]3O)ccc12 [compound 24],inhibitory activity against nsp14 (in words),[3],significant decrease or complete loss of the inhibitory activity
same,IC50,[3]; [10],3.67 ± 0.4 µM
same,Hill slope,[3],-1.04
same,IC50,[3]; [11],3.67 µM
Cc1noc(C)c1-c1ccc(NC(=O)[C@H]2O[C@@H](n3cnc4c(N)ncnc43)[C@H](O)[C@@H]2O)cc1 [12j],IC50,[3]; [12],N.I.
COC(=O)c1cc(NC(=O)[C@H]2O[C@@H](n3cnc4c(N)ncnc43)[C@H](O)[C@@H]2O)ccc1F [12f],IC50,[3]; [12],N.I.
Cc1cc(=O)oc2cc(NC(=O)[C@H]3O[C@@H](n4cnc5c(N)ncnc54)[C@H](O)[C@@H]3O)ccc12 [12l],"Plasma stability % of the parent compound after 120 min, Mouse",[1],93 ± 2.7%
same,EC50,[2],> 50 µM
same,IC50,[3]; [10],0.36 ± 0.04 µM
same,Hill slope,[3],-1.39
same,IC50,[3]; [11],0.364 µM
same,Papp A-B,[4],3.1 ± 1.3 cm/s x 10-6
same,Papp B-A,[4],10.7 ± 2.5 cm/s x 10-6
same,"efflux ratio at 2 h, 10 µM",[5],3.4
same,"recovery at 2 h, 10 µM","[5]; Caco-2, Recovery (%) A-B",85%
same,"recovery at 2 h, 10 µM","[5]; Caco-2, Recovery (%) B-A",83%
same,"Papp A→B at 2 h, 10 µM",[5],3.1 ± 1.3 ×10⁻⁶ cm/s
same,"Papp B→A at 2 h, 10 µM",[5],10.7 ± 2.5 ×10⁻⁶ cm/s
same,inhibitory activity against RNMT,[6],None of the tested compounds exhibited any inhibitory activity
same,"Microsomal stability % of the parent compound after 45 min, Mouse",[7],95 ± 5.0%
same,"Plasma stability % of the parent compound after 120 min, Human",[8],103 ± 3.3%
same,"Microsomal stability % of the parent compound after 45 min, Human",[9],104 ± 4.1%
Cc1cc(=O)[nH]c2cc(NC(=O)[C@H]3O[C@@H](n4cnc5c(N)ncnc54)[C@H](O)[C@@H]3O)ccc12 [12n],"Plasma stability % of the parent compound after 120 min, Mouse",[1],78 ± 0.3%
same,EC50,[2],> 50 µM
same,IC50,[3]; [10],0.35 ± 0.04 µM
same,Hill slope,[3],-1.19
same,Papp A-B,[4],4.4 ± 1.8 cm/s x 10-6
same,Papp B-A,[4],2.2 ± 0.4 cm/s x 10-6
same,"efflux ratio at 2 h, 10 µM",[5],0.5
same,"recovery at 2 h, 10 µM","[5]; Caco-2, Recovery (%) A-B",79%
same,"recovery at 2 h, 10 µM","[5]; Caco-2, Recovery (%) B-A",87%
same,"Papp A→B at 2 h, 10 µM",[5],4.4 ± 1.8 ×10⁻⁶ cm/s
same,"Papp B→A at 2 h, 10 µM",[5],2.2 ± 0.4 ×10⁻⁶ cm/s
same,inhibitory activity against RNMT,[6],None of the tested compounds exhibited any inhibitory activity
same,"Microsomal stability % of the parent compound after 45 min, Mouse",[7],90 ± 2.9%
same,"Plasma stability % of the parent compound after 120 min, Human",[8],97 ± 2.0%
same,"Microsomal stability % of the parent compound after 45 min, Human",[9],95 ± 0.0%
Cc1cc(=O)oc2cc(S(=O)(=O)C[C@H]3O[C@@H](n4cnc5c(N)ncnc54)[C@H](O)[C@@H]3O)ccc12 [compound 25],inhibitory activity against nsp14 (in words),[3],significant decrease or complete loss of the inhibitory activity
same,IC50,[3]; [10],> 25 µM
NC(=O)c1ccc(NC(=O)[C@H]2O[C@@H](n3cnc4c(N)ncnc43)[C@H](O)[C@@H]2O)cc1 [12b],IC50,[3]; [12],N.I.
"Nc1ncnc2c1ncn2[C@@H]1O[C@H](C(=O)Nc2ccc(-c3ccoc3)cc2)[C@@H](O)[C@H]1O [12g, (2S,3S,4R,5R)-5-(6-Amino-9H-purin-9-yl)-N-(4-(furan-3-yl)phenyl)-3,4-dihydroxytetrahydrofuran-2-carboxamide]",IC50,[3]; [12],N.I.
Nc1ncnc2c1ncn2[C@@H]1O[C@H](C(=O)Nc2ccc(-c3ccsc3)cc2)[C@@H](O)[C@H]1O [12h],IC50,[3]; [12],N.I.
COc1ccc(NC(=O)[C@H]2O[C@@H](n3cnc4c(N)ncnc43)[C@H](O)[C@@H]2O)cc1O [12d],IC50,[3]; [10],> 25 µM
